pIC50: −log10 of the molar value.
Key:
HeLa cells = assay: MTT cytotoxicity assay, HeLa; format: cell-based; conditions: Homo sapiens, 48 h, mean ± SD
Method: (§1) Human umbilical vein endothelial cells (purchased from Life Technologies, Carlsbad, CA, USA) were cultured according to the manufacturer’s instructions in Medium 200 supplemented with Low Serum Growth Supplement. 1 × 10^4 cells were seeded on each well on a 96-well plate (Nunc, Roskilde, Denmark). The HeLa (human cervix carcinoma, cat. #93021013), CFPAC (human pancreatic adenocarcinoma, cat. #91112501), K562 (chronic myelogenous leukemia, cat. #89121407), HL-60 (acute myelogenous leukemia, cat. #98070106), and MOLT-4 (Human acute T lymphoblastic leukemia, cat. #85011413) cells were purchased from European Collection of Authenticated Cell Cultures (ECACC). They were cultured in an RPMI 1640 medium supplemented with antibiotics (streptomycin, penicillin) and 10% fetal calf serum (20% for HL60), in a 5% CO2-95% air atmosphere. 7 × 10^3 cells were seeded on each well on a 96-well plate (Nunc). 24 hours later the cells were exposed to the test compounds. The aliquots of stock solutions of the test compounds (freshly prepared in DMSO) were added to the cell cultures to yield final concentrations of 1, 10^−1, 10^−2, 10^−3, 10^−4, and 10^−5 mM. The concentration of DMSO in the cell culture medium was 1%. The IC50 value (the concentration of a test compound required to reduce the cell survival fraction to 50% of the control) was calculated from a dose-response curve and used as a measure of cellular sensitivity to a given treatment. The IC50 values are given as means (± standard deviation (SD)) from 2 independent experiments with 4 technical replicates. The cytotoxicity of all compounds was determined by the MTT (3-(4,5-dimethylthiazol-2-yl)-2,5-diphenyltetrazolium bromide) assay (Sigma, St. Louis, MO, USA). Briefly, after 24 h or 48 h of incubation with a given compound, the cells were treated with the MTT reagent and incubation was continued for 2 h. MTT-formazan crystals were dissolved in 20% SDS and 50% DMF at pH 4.7 and VIS light absorption was measured at 570 and 650 nm on a microplate reader FLUOstar Omega (BMG Labtech, Offenburg, Germany). As a control (100% viability), cells grown in the presence of 1% DMSO were used.

ABC50 [1] = target: T1, ABC50 (Homo sapiens, UniProt Q8NE71); assay: ABC50 level by Western blotting in HeLa cells (PROTAC approach); format: cell-based; design: endogenous in cells; conditions: 96 h, 7 (30 µM), 8 (15 µM), 9 (30 µM)
Method: (§2) Cells were lysed in TBS buffer containing 1% Triton X-100 and Complete® protease inhibitor cocktail (Roche) for 15 min on ice with occasional vortexing. Insoluble material was centrifuged (12,000 rpm, 15 min, 4 °C) and supernatants were collected. Total protein concentration was measured with DC Protein Assay (Bio-Rad, Hercules, CA, USA). Cell lysates containing 30 µg of total protein were mixed with Laemli buffer supplemented with SDS and β-mercaptoethanol, denatured (10 min, 95 °C) and subjected to sodium dodecyl sulfate polyacrylamide gel electrophoresis (SDS-PAGE) electrophoresis (4% stacking and 10% resolving gels). Resolved proteins were electrotransferred (semi-dry, 90 min, 1.5 mA/cm^2) to a 0.45 µm nitrocellulose membrane (Thermo Scientific, Waltham, MA, USA). Membranes were blocked for 2 hours in TBST buffer (20 mM Tris-HCl pH 7.5, 0.9% NaCl, 0.1% Tween 20) containing 5% BSA (BioShop, Burlington, ON, Canada) and probed with primary antibodies (overnight at 4 °C) diluted in TBST buffer with 0.5% BSA. Tubulin served as a loading control for IB experiments. Anti IKZF3 (rabbit monoclonal, dilution 1:500), anti IKZF1 (rabbit polyclonal, dilution 1:500) were from Abcam. Anti IRF4 (rabbit polyclonal, dilution 1:500) were from Cell Signaling Technology. Anti α-tubulin (mouse monoclonal IgG, 1:1000) was from Sigma Aldrich. Anti ABC50 antibodies (mouse monoclonal ABC5H06, dilution 1:100) was from Abcam. After extensive washing with TBST buffer, membranes were probed with secondary goat anti-rabbit or goat anti-mouse HRP-conjugated IgG (1:5000 in TBST, Santa Cruz Biotech, Dallas, TX, USA) for 45 min at room temperature. […] Protein bands intensities were analysed using Image Quant (version 5.0, GE Healthcare Life Sciences, Pittsburgh, PA, USA).
(§3) ABC50 was identified as the target of the test dicarboximides in the pull-down experiments. […] It must be noted that 7, 8 and 9 were evaluated as mixtures of enantiomers. K562 and HeLa cells were incubated with chimeras 7 (30 µM), 8 (15 µM) and 9 (30 µM) for 96 h and subsequently the level of ABC50 was determined by Western blotting. […]

ABC50 [2] = target: T1, ABC50; assay: ABC50 level by Western blotting in K562 cells (PROTAC approach); format: cell-based; design: endogenous in cells; host or cells: K562 cell lysate; conditions: K562, 96 h, 7 (30 µM), 8 (15 µM), 9 (30 µM)
Method: as §2, §3

[3] = tested on: HUVEC (human umbilical vein endothelial cells); assay: MTT cytotoxicity assay, HUVEC; format: cell-based; conditions: 48 h, mean ± SD
Method: as §1

K562 cells = assay: MTT cytotoxicity assay, K562; format: cell-based; conditions: Homo sapiens, 48 h, mean ± SD
Method: as §1

MOLT-4 cells = assay: MTT cytotoxicity assay, MOLT-4; format: cell-based; conditions: Homo sapiens, 48 h, mean ± SD
Method: as §1

T1 sequence (Q8NE71 whole entry): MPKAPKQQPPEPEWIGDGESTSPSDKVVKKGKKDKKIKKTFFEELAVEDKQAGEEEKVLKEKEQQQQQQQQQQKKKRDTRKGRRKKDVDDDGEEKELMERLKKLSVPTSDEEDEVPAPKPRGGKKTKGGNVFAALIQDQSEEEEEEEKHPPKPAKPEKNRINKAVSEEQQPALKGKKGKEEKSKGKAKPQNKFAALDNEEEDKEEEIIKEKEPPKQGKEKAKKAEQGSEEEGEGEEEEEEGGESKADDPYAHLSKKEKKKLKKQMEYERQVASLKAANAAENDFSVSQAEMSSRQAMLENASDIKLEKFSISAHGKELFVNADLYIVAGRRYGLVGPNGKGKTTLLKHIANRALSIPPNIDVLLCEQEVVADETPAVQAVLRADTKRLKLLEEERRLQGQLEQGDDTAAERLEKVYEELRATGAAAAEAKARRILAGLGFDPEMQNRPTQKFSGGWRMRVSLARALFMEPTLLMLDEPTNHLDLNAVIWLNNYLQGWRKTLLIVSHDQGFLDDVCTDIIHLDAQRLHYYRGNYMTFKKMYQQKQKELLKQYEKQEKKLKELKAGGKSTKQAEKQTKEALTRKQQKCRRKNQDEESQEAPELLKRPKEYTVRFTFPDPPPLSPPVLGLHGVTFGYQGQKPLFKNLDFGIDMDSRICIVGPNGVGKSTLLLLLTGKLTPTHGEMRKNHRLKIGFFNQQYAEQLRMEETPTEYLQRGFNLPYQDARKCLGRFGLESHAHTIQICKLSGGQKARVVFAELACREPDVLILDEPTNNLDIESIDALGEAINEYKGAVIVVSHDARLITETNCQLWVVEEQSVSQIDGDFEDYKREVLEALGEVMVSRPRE

level of ABC50 (Western blotting) (ABC50 [1]) | level of ABC50 (Western blotting) (ABC50 [2]) | melting point | SMILES | pIC50 (HeLa cells) | pIC50 [3] | pIC50 (K562 cells) | pIC50 (MOLT-4 cells)
significantly downregulated | significantly reduced | 217 to 218 °C | CC12C(=O)C(C)(C(c3ccccc3)=C1c1ccccc1)C1C(=O)N(C3CCC(=O)NC3=O)C(=O)C12 (stereo not drawn) [Compound 7, 4-(2,6-dioxopiperidin-3-yl)-1,7-dimethyl-8,9-diphenyl-4-azatricyclo[5.2.1.0^2,6]dec-8-ene-3,5,10-trione] | 3.74 | 3.70 | 3.77 | 3.82
significantly downregulated | significantly reduced | 232 to 234 °C | CCC12C(=O)C(CC)(C(c3ccccc3)=C1c1ccccc1)C1C(=O)N(C3CCC(=O)NC3=O)C(=O)C12 (stereo not drawn) [Compound 8, 4-(2,6-dioxopiperidin-3-yl)-1,7-diethyl-8,9-diphenyl-4-azatricyclo[5.2.1.0^2,6]dec-8-ene-3,5,10-trione] | < 3.70 | 4.19 | 4.60 | 4.74
didn’t have such pronounced effect | significantly reduced | 230 to 232 °C | O=C1CCC(N2C(=O)C3C(C2=O)C2(c4ccccc4)C(=O)C3(c3ccccc3)C(c3ccccc3)=C2c2ccccc2)C(=O)N1 (stereo not drawn) [Compound 9, 4-(2,6-dioxopiperidin-3-yl)-1,7,8,9-tetraphenyl-4-azatricyclo[5.2.1.0^2,6]dec-8-ene-3,5,10-trione] | < 3.70 | < 3.70 | < 3.70 | < 3.70
